# Test results: US20060040937A1, “N-aroyl cyclic amines as orexin receptor antagonists” (Glaxo Group Limited, priority 2002, published 2006)
# Ends that are not written are not given here.
# What was measured:
# [1] = test system: freely-feeding rats; settings: central administration, 4 hour time period; cited from earlier work
# [2] = test system: rat; test: Rat sleep/EEG studies; type: in vivo; settings: central administration at the onset of the normal sleep period
# Excerpt: Therefore antagonists of its receptor may be useful in the treatment of sleep disorders including insomnia.
substance,measurement,setting,value
"orexin-A: peptide ligand for the orexin-1 receptor, an agonist of the orexin receptors; amino acid sequence printed in b97-b99 (QPLPDCCRQKTCSCRLYELLHGAGNHAAGILTL; ends and bridges not checked; cysteine pairing not given here; UniProt O43612 34-66, looked up)",increase in food intake over control rats receiving vehicle,[1],approximately four-fold
same,effect on arousal (sleep/EEG),[2],dose-related increase in arousal
